According to US20260199438A1, “METHOD AND TREATMENT FOR DIABETES IN DOGS” (THE ROYAL VETERINARY COLLEGE, priority 2022, published 2026):
Read-outs that look alike come from different tables or passages of the source.

Key:
[1] = target: T1, wild-type (WT) KATP channels (Kir6.2/SUR1) (Homo sapiens, UniProt Q09428+Q14654)
[2] = target: T1, wild-type (WT) KATP channels (Kir6.2/SUR1); experiment: Two-electrode voltage-clamp whole-cell currents in Xenopus oocytes, wild-type channel; assay type: cell-based

T1 sequence (Q14654 whole entry): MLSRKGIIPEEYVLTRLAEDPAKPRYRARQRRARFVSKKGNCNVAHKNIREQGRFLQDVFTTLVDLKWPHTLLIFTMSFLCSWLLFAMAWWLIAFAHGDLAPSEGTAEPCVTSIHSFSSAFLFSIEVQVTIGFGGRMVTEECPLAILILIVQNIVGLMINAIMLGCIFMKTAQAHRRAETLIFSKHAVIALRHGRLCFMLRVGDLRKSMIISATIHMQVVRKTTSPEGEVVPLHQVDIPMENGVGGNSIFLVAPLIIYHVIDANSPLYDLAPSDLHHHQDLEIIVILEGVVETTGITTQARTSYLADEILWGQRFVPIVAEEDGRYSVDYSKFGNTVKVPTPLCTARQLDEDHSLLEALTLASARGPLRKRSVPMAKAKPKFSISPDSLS
T1 sequence (Q09428 whole entry): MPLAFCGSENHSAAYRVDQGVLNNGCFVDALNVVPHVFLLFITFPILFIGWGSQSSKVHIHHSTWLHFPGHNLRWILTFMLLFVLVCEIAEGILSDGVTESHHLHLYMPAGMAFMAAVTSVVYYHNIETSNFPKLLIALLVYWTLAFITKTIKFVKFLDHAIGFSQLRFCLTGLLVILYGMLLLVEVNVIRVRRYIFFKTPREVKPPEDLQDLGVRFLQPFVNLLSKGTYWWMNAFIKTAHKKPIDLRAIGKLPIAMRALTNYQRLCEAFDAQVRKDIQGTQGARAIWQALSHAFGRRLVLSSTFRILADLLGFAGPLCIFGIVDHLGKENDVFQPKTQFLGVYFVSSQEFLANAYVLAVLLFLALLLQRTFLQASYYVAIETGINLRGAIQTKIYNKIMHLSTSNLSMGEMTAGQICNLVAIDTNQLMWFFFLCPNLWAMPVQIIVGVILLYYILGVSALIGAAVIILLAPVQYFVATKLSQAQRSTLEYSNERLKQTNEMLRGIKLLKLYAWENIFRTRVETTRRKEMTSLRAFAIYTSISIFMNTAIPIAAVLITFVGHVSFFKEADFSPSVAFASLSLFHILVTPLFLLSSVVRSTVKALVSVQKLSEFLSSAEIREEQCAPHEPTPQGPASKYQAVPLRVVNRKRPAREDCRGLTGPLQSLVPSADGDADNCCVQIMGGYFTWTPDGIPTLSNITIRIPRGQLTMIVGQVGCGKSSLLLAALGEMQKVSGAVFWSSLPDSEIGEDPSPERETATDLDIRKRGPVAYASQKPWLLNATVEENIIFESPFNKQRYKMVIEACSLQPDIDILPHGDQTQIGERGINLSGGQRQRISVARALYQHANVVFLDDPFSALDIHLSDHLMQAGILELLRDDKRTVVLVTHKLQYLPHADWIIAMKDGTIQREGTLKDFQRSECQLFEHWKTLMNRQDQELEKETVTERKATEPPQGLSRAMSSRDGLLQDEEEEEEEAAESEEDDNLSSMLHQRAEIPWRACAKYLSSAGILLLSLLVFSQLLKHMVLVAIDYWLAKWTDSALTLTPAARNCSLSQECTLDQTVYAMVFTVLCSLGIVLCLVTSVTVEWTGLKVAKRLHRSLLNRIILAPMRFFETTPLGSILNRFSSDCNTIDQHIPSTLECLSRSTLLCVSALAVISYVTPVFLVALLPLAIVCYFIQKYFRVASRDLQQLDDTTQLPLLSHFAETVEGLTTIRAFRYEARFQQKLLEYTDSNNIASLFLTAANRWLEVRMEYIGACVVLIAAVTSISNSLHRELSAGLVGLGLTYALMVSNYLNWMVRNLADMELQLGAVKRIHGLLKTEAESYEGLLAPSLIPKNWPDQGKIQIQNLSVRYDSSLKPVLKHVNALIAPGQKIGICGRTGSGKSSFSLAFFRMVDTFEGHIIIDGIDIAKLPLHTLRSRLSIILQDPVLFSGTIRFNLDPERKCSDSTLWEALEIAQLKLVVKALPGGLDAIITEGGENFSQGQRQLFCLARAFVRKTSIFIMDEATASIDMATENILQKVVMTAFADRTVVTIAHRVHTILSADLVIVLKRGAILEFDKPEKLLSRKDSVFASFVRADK

Nc1ncnc2c1ncn2[C@@H]1O[C@H](COP(=O)(O)OP(=O)(O)OP(=O)(O)O)[C@@H](O)[C@H]1O [ATP, adenosine triphosphate]
Hill coefficient h, fits to individual dose-response relationships (mean±SEM) ([1]; absence of Mg2+): 1.24±0.05
Hill coefficient h, fit to the mean data ([1]; presence of Mg2+): 1.1
Hill coefficient h, fits to individual dose-response relationships (mean±SEM) ([1]; presence of Mg2+): 1.12±0.04

CCCCNC(=O)NS(=O)(=O)c1ccc(C)cc1 [tolbutamide]
tolbutamide block, percentage block of the azide-induced current ([2]; WT channels, 0.5 mM tolbutamide after 3 mM Na-azide): > 95%

[N-]=[N+]=[N-].[Na+] [Na-azide]
activation of whole-cell currents by the metabolic inhibitor ([2]; WT, 3 mM Na-azide): activated
